Measurements reported in the NIST ThermoML archive (doi:10.1016/j.fluid.2007.04.030).
± gives the expanded uncertainty stated by the source.

Conditions: 101 kPa, Liquid

| SMILES | mass density (283.15 K) | mass density (288.15 K) | mass density (293.15 K) | mass density (298.15 K) | mass density (303.15 K) | mass density (308.15 K) | mass density (313.15 K) | mass density (318.15 K) | mass density (323.15 K) | mass density (328.15 K) | mass density (333.15 K) |
| --- | --- | --- | --- | --- | --- | --- | --- | --- | --- | --- | --- |
| CCCCO [butan-1-ol] | 817.15 ± 0.54 kg/m3 | 813.38 ± 0.54 kg/m3 | 809.59 ± 0.55 kg/m3 | 805.77 ± 0.56 kg/m3 | 801.92 ± 0.57 kg/m3 | 798.05 ± 0.58 kg/m3 | 794.14 ± 0.58 kg/m3 | 790.19 ± 0.59 kg/m3 | 786.19 ± 0.6 kg/m3 | 782.14 ± 0.61 kg/m3 | 778.03 ± 0.62 kg/m3 |
| CCO [ethanol] | 797.96 ± 0.57 kg/m3 | 793.71 ± 0.58 kg/m3 | 789.44 ± 0.59 kg/m3 | 785.15 ± 0.6 kg/m3 | 780.83 ± 0.6 kg/m3 | 776.48 ± 0.61 kg/m3 | 772.09 ± 0.62 kg/m3 | 767.65 ± 0.63 kg/m3 | 763.17 ± 0.64 kg/m3 | 758.63 ± 0.65 kg/m3 | 754.01 ± 0.66 kg/m3 |
| CCCCCCO [hexan-1-ol] | 827.82 ± 2.1 kg/m3 | 824.25 ± 2.1 kg/m3 | 820.65 ± 2.1 kg/m3 | 817.03 ± 2.1 kg/m3 | 813.39 ± 2.1 kg/m3 | 809.71 ± 2.1 kg/m3 | 806 ± 2.1 kg/m3 | 802.27 ± 2.1 kg/m3 | 798.49 ± 2.1 kg/m3 | 794.67 ± 2.1 kg/m3 | 790.8 ± 2.1 kg/m3 |
| CO [methanol] | 801.08 ± 0.56 kg/m3 | 796.41 ± 0.57 kg/m3 | 791.71 ± 0.58 kg/m3 | 787.01 ± 0.59 kg/m3 | 782.29 ± 0.6 kg/m3 | 777.55 ± 0.61 kg/m3 | 772.78 ± 0.62 kg/m3 | 767.97 ± 0.63 kg/m3 | 763.12 ± 0.64 kg/m3 | 758.23 ± 0.65 kg/m3 | 753.29 ± 0.66 kg/m3 |
| CCCCCCCCO [octan-1-ol] | 832.13 ± 0.54 kg/m3 | 828.71 ± 0.55 kg/m3 | 825.27 ± 0.56 kg/m3 | 821.81 ± 0.56 kg/m3 | 818.33 ± 0.57 kg/m3 | 814.84 ± 0.58 kg/m3 | 811.31 ± 0.58 kg/m3 | 807.76 ± 0.59 kg/m3 | 804.19 ± 0.6 kg/m3 | 800.58 ± 0.6 kg/m3 | 796.93 ± 0.61 kg/m3 |
| CCCCCO [pentan-1-ol] | 822.42 ± 0.69 kg/m3 | 818.79 ± 0.7 kg/m3 | 815.13 ± 0.7 kg/m3 | 811.45 ± 0.71 kg/m3 | 807.74 ± 0.72 kg/m3 | 804.01 ± 0.72 kg/m3 | 800.24 ± 0.73 kg/m3 | 796.43 ± 0.73 kg/m3 | 792.57 ± 0.74 kg/m3 | 788.67 ± 0.75 kg/m3 | 784.72 ± 0.75 kg/m3 |
| CCCO [propan-1-ol] | 811.57 ± 1.2 kg/m3 | 807.62 ± 1.2 kg/m3 | 803.63 ± 1.2 kg/m3 | 799.62 ± 1.2 kg/m3 | 795.58 ± 1.2 kg/m3 | 791.49 ± 1.2 kg/m3 | 787.37 ± 1.2 kg/m3 | 783.22 ± 1.2 kg/m3 | 779.01 ± 1.2 kg/m3 | 774.73 ± 1.2 kg/m3 | 770.39 ± 1.2 kg/m3 |
| CC(C)O [propan-2-ol] | 793.31 ± 0.74 kg/m3 | 789.22 ± 0.75 kg/m3 | 785.08 ± 0.75 kg/m3 | 780.87 ± 0.76 kg/m3 | 776.6 ± 0.77 kg/m3 | 772.25 ± 0.77 kg/m3 | 767.81 ± 0.78 kg/m3 | 763.28 ± 0.79 kg/m3 | 758.64 ± 0.8 kg/m3 | 753.88 ± 0.8 kg/m3 | 749.01 ± 0.81 kg/m3 |
